# Laboratory results published in ChEMBL document CHEMBL1201862, “PubChem BioAssay data set” (2004).
# Active and inactive are the calls of the source.
# Legend:
# [1] = system: P388; experiment: cells; type: functional; conditions: Mus musculus
# [2] = system: P388/ADR; experiment: cells; type: functional; conditions: Mus musculus
# [3] = system: SN12K1; experiment: cells; type: functional; conditions: Homo sapiens
# [4] = biological target: Cytochrome P450 2C9 (Homo sapiens, UniProt P11712)
# [5] = biological target: Cytochrome P450 2C19 (Homo sapiens, UniProt P33261); experiment: Cytochrome panel assay with activity outcomes. Panel member name: p450-cyp2c19 Compounds with AC50 equal or less than 10 uM are considered active; type: functional
# Sequence of Cytochrome P450 2C19 (P33261 whole entry): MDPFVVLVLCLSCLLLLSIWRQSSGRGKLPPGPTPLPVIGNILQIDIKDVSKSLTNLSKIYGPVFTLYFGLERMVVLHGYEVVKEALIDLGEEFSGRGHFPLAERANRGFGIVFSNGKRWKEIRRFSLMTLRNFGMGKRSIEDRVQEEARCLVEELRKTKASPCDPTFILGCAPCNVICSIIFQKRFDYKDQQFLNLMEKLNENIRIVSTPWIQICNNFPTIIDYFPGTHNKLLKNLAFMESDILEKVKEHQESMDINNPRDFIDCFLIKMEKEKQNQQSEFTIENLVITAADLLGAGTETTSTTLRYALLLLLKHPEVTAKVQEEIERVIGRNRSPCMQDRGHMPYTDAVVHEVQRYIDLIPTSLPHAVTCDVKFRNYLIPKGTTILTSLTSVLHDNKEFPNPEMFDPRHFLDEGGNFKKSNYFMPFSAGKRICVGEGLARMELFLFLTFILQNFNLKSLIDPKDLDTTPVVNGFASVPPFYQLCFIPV
# [6] = biological target: Cytochrome P450 3A4 (Homo sapiens, UniProt P08684);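 note: CYP3A4 tested as one member of a cytochrome P450 panel screen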
# Sequence of Cytochrome P450 3A4 (P08684 whole entry): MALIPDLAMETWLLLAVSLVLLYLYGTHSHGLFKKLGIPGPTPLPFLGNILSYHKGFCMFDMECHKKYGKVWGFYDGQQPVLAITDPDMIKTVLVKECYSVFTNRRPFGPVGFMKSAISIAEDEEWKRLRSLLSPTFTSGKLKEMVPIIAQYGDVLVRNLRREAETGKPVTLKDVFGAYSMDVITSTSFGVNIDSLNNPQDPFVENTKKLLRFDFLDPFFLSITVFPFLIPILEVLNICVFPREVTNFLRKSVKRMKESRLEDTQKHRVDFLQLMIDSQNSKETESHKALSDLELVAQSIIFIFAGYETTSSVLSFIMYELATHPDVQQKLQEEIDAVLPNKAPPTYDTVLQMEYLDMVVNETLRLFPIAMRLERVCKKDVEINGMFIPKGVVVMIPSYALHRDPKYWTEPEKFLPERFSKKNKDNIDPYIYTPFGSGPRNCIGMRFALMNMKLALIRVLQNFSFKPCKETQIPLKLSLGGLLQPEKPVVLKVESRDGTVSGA
# [7] = biological target: Cytochrome P450 2D6 (Homo sapiens, UniProt P10635);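 note: CYP2D6 member of a cytochrome P450 panel assay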
# Sequence of Cytochrome P450 2D6 (P10635 whole entry): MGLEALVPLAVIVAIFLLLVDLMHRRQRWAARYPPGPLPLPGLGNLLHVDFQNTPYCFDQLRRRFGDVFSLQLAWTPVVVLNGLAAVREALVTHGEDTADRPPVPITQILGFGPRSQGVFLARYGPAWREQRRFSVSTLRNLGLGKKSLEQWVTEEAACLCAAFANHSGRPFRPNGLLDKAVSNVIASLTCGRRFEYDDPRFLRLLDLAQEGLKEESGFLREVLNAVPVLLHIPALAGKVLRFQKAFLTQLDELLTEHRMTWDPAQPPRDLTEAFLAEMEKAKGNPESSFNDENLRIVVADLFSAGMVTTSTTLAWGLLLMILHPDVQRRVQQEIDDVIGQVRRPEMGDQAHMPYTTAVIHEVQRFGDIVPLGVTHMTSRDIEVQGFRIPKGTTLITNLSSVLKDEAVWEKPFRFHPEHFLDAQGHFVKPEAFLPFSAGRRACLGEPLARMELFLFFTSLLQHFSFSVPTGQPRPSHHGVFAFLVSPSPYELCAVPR
# [8] = cytotoxicity toward NIH3T3 fibroblasts, dose response, counter-screen, cell-based, ATP luminescence, mouse fibroblasts (AID 2010); type: functional;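 note: cells exposed to compound for about 90 hours before reading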
# [9] = biological target: T1, Short transient receptor potential channel 4 (Mus musculus, UniProt Q9QUQ5); experiment: mouse TRPC4 channel activators, dose response, cell-based, HEK293 TRPC4/mu-opioid, Fluo-4 calcium (AID 434937); type: functional
# T1 sequence (Q9QUQ5 whole entry): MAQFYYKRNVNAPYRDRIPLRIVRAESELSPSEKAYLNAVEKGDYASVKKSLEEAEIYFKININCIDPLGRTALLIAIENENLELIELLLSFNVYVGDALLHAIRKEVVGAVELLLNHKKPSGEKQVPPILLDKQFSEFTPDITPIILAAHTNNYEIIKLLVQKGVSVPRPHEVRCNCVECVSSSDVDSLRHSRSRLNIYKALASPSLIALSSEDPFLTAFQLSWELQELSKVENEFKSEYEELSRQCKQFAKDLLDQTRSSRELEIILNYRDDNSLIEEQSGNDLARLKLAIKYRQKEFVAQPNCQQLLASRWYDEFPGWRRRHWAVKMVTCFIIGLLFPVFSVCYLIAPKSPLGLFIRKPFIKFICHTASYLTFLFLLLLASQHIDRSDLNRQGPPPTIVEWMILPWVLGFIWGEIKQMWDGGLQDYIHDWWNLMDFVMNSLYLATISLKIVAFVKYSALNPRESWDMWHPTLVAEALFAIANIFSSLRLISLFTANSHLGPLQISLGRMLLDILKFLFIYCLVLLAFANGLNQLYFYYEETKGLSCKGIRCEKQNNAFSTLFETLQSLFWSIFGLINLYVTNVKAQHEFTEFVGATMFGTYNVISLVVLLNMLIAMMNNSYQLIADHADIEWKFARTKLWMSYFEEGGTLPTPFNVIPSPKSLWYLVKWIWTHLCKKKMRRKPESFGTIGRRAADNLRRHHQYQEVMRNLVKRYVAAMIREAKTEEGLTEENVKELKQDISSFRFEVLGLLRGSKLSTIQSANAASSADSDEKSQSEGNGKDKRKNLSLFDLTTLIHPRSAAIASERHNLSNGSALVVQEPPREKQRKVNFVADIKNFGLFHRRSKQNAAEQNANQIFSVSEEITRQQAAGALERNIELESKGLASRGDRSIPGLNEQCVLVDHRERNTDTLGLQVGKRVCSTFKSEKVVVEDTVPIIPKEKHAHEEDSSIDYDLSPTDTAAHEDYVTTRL
# [10] = inhibitors of intracellular T. cruzi replication, confirmation, NIH3T3 host cells, beta-gal luminescence (AID 2044); type: functional, cell-based;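 note: intracellular parasites grown in NIH/3T3 mouse fibroblasts as host cells; luminescent beta-galactosidase reporter signal from transgenic T. cruzi replicating inside host cells; inhibitors lower the luminescence signal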
# [11] = cells; type: functional, cell-based
# [12] = cells; type: functional, cell-based; remark: listed apart in the source
# [13] = Luminescence Cell-Based Dose Response HTS to Identify Inhibitors of 5'UTR Stem-Loop Driven Prion Protein mRNA Translation in H4 Neuroglioblastoma Cells. [Related pubchem assays: 1827 (Project Summary), 1813 (Primary HTS)]; type: functional
# [14] = Luminescence Cell-Based Dose Retest to Confirm Inhibitors of Cancer Stem Cells. [Related pubchem assays (depositor defined):AID2717, AID2721]; type: functional; conditions: Homo sapiens
# [15] = control 3'UTR Renilla luciferase suppression, dose response, counter-screen for Shn3 inhibitor project, cell-based, Clone20-Shn3RL, cherry-picked (AID 624133); type: functional
# [16] = inhibitors of firefly luciferase expression or activity, dose response, H4 neuroglioma cells, luminescence (AID 1990); type: functional, cell-based
# [17] = inhibitors of SNCA 5'UTR-driven reporter translation, confirmation, H4 neuroglioma cells, luminescence (AID 1988); type: functional, cell-based
# [18] = HepG2 cell cytotoxicity, dose response, cytotoxicity control for Shn3 inhibitor project, CellTiter-Glo, cherry-picked (AID 624134); type: functional, cell-based
# [19] = system: INS1; experiment: beta cell apoptosis inhibitors, cytokine rescue, dose response, luminescence, retest (AID 449756); type: functional, cell-based; conditions: Rattus norvegicus;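 note: cell death triggered by IL-1 beta plus TNF-alpha plus IFN-gamma mixture; protective hits raise ATP signal compared with cytokine alone wells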
# [20] = Shn3 3'UTR reporter inhibitors, dose response, cell-based, Clone20 osteoblasts, firefly luciferase, cherry-picked (AID 624132); type: functional;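 note: firefly luciferase luminescence from reporter carrying the Shn3 3'UTR in osteoblasts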
# [21] = biological target: Heat shock protein HSP 90-alpha (Homo sapiens, UniProt P07900); type: functional, organism-based
# [22] = system: Vero; experiment: cells; type: functional; conditions: Chlorocebus sabaeus
# [23] = NIH-3T3 fibroblast cytotoxicity, dose response, cytotoxicity control, cell-based, fluorescence, Alamar Blue, secondary assay (AID 2327); type: functional;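 note: NIH-3T3 mouse fibroblasts cultured with fluconazole at 8 µg/mL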
# [24] = C. albicans growth with fluconazole, confirmation, fluorescence, retest (AID 2467); type: functional, cell-based
# [25] = system: BJ; experiment: cytotoxicity toward BJ-TERT-LT-ST fibroblasts, dose response, cell-based, RAS-independent, luminescence (AID 1935); type: functional; conditions: Homo sapiens;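 note: BJ fibroblasts immortalized with TERT plus LT and ST oncogenes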
# [26] = cytotoxicity toward DRD oncogenic fibroblasts, dose response, cell-based, non-viral oncogenic, luminescence (AID 1934); type: functional; conditions: Homo sapiens
# [27] = system: BJ; experiment: cytotoxicity toward BJ-TERT fibroblasts, dose response, cell-based, RAS-independent, luminescence (AID 1933); type: functional; conditions: Homo sapiens
# [28] = system: BJ; experiment: cells; type: functional, cell-based; conditions: Homo sapiens
# Sequence of Cytochrome P450 2C9 (P11712 whole entry): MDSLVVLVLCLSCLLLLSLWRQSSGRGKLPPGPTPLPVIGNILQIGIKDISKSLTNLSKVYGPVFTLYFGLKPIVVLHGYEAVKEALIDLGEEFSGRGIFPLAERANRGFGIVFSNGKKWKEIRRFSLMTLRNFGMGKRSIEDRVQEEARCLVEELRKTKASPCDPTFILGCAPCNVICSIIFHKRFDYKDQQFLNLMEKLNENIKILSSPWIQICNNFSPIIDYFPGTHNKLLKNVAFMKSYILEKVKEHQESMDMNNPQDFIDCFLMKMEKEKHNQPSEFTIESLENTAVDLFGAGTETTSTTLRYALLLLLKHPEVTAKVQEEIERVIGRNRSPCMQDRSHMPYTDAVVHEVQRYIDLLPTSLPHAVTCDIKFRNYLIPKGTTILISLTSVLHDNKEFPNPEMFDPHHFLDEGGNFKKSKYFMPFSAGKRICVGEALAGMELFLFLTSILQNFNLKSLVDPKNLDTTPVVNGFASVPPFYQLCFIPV
structure (smiles),measurement,setting,value
Cc1cc(-c2ccc(/N=N/c3ccc4c(S(=O)(=O)O)cc(S(=O)(=O)O)c(N)c4c3O)c(C)c2)ccc1/N=N/c1ccc2c(S(=O)(=O)O)cc(S(=O)(=O)O)c(N)c2c1O,GI50,[1],> 100 µM (inactive)
same,GI50,[2],> 100 µM (inactive)
same,GI50,[3],> 100 µM (inactive)
C[C@@H]1CCC[C@H](C)N1,AC50,[4],inconclusive
same,AC50,[5],inconclusive
O=C(c1cnn(-c2ccccc2)c1)c1ccc2ccccc2c1O,AC50,[4],inconclusive
same,AC50,[6],17.8 µM (inconclusive)
same,AC50,[7],7.08 µM (inconclusive)
Cc1ccc(C)c(OCCCCn2ccnc2)c1,EC50,[8],> 60 µM (not active)
same,EC50,[9],4.73 µM (active)
same,EC50,[10],2.04 µM (active)
CCOC(=O)c1cnc(-n2nc(C)cc2C)nc1NNc1nc(-c2ccccc2)cc(-c2ccccc2)n1,EC50,[11],> 350 µM (not active)
same,EC50,[12],> 350 µM (not active)
same,EC50,[13],12.6 µM (active)
same,AC50,[14],1.88 µM (active)
same,AC50,[15],7.39 µM (active)
same,EC50,[16],8.48 µM (active)
same,EC50,[17],8.83 µM (active)
same,AC50,[18],48.5 µM (active)
same,AC50,[19],2.69 µM (active)
same,AC50,[20],3.84 µM (active)
CCCC1COC(Cn2cncn2)(c2ccc(C)cc2)O1 (stereo not drawn),AC50,[21],730 nM (active)
CCOC(=O)C1=C(N)N=C(N)C1=Nc1ccc(OC)cc1,CC50,[22],11.1 µM (active)
c1ccc(-c2ccc3c(c2)c2c4n3CCN=C4CCC2)cc1,EC50,[23],50.1 µM (active)
same,AC50,[5]; read-out: AC50,31.6 µM (inconclusive)
same,EC50,[24],> 38 µM (not active)
same,CC50,[22],23.6 µM (active)
C=C1CCCC(C)(C)[C@@H]1CC/C(C)=C/Cn1c2cccc(=O)c-2nc2ccccc21,GI50,[1],0.569 µM (active)
same,GI50,[2],0.229 µM (active)
same,GI50,[3],1.48 µM (inactive)
CCCN(CCC)CCCNc1ccc2nnc(-c3ccc(F)cc3)n2n1,EC50,[9],0.596 µM (active)
CC(/C=N/NC(=O)c1[nH]nc2c1CCC2)=C\c1ccccc1,EC50,[25],1.03 µM (inconclusive)
same,EC50,[26],430 nM (active)
same,EC50,[27],346 nM (inconclusive)
same,CC50,[22],< 0.05 µM (active)
same,EC50,[28],25.5 µM (inconclusive)
COC(=O)CN1CN(c2ccccc2)C2(CCN(Cc3ccc4ccccc4c3)CC2)C1=O,AC50,[4],inconclusive
same,AC50,[7],20 µM (inconclusive)
